This is an account of results in patent US9260759B2, “Pyrazoloanthrone and derivatives thereof for the treatment of cancers expressing MISRII” (The General Hospital Corporation, priority 2007, dated 2016).

For series [1], the target named is T1, MISRIIK228R (Rattus norvegicus, UniProt Q62893, K228R).
T1 construct: expressed in transfected cells; host or cells: COS7
T1 sequence (Q62893 18-557 K228R): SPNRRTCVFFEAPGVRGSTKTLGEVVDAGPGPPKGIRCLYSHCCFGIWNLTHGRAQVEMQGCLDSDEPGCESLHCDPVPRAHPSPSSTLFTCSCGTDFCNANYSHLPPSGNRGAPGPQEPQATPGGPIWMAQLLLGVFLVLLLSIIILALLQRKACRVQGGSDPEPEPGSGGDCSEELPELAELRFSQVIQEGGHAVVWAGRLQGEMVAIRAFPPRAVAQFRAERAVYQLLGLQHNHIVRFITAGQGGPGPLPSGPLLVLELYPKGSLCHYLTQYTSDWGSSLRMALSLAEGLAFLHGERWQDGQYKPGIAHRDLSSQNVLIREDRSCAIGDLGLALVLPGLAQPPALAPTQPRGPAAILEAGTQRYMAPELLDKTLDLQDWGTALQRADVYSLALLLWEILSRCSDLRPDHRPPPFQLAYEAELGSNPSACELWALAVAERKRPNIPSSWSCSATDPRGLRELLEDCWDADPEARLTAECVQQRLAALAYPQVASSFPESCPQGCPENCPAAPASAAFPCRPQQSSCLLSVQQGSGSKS
In words: BRE-luciferase reporter assay in COS7 cells with kinase-deficient receptor MISRIIK228R. In kind it is cell-based. The text has this:
Results shown represent the mean values from four independent experiments performed in triplicates (Error bars represent standard error of the mean, *, P<0.05).

Series [2] deals with COS7 cells. The series is described as follows: Renilla luciferase (phRL-CMV) control expression in transfected COS7 cells. The class given is cell-based. As to conditions: 33.3 uM and 100 uM SP600125, COS7. The text has this: COS7 cells were transiently transfected with MISRH, BRE-Luciferase and phRL-CMV. […] Control cells were transfected with a control plasmid (EGFP-N1 plasmid) instead of the receptor plasmid to keep the total DNA transfected constant. The results shown are the fold-induction over vehicle treated cells and normalized to phRL-CMV expression to correct for variations in cell number and transfection efficiency. […] The results represent the mean values from three independent experiments performed in triplicates (Error bars represent SEM, *p<0.05, **p<0.001).
COS7 cells were plated at a density of 5000 cells/well in 96-well plates for secondary screens. The day after plating cells were transfected with rat MISRII receptor or EGFP-N1 (Clontech, Mountain View Calif.) together with BRE firefly luciferase reporter construct and phRL-CMV using TransIT-LT1 transfection reagent (Mirus Bio Corporation, Madison Wis.). […] Results were obtained using the Dual Luciferase reporter assay according to the manufacturer's instructions (Promega). Plates were read in a Wallac Victor2 luminometer (PerkinElmer, Wellesley Mass.).

For `O=C1c2ccccc2-c2n[nH]c3cccc1c23` [SP600125, anthra[1,9-cd]pyrazol-6(2H)-one], the “activation of BRE-luciferase with kinase-deficient receptor” value in series [1] (K228R receptor overexpressed, COS7, 24 hrs, agent alone) is listed as “neither MIS nor SP600125 activates BRE-luciferase”. Also, the “further increase of BRE-luciferase activity by MIS in combination with SP600125, with K228R” value in series [1] (MIS plus SP600125, K228R receptor) was “completely abolished”. For the same compound, the “inhibition of Renilla luciferase (suggesting toxic effects to the cells)” value in series [2] is listed as “approximately 60%”.
